# Assay results reported in PMC9096165 (Frontiers in Pharmacology, 2022).
# Columns and labels:
# CXCL1 = CXCL1 mRNA expression in F11 cells (RT PCR); assay type: cell-based; details: CYP 100 nM alone
# Description: (§1) For these experiments, cells at 18th passage were used.
# (§2) Triplicate samples were run for each gene.
# CXCR2 = CXCR2 mRNA expression in F11 cells (RT PCR); assay type: cell-based; details: CYP 100 nM alone
# Description: as §1, §2
# TRPV1 [1] = assay: TRPV1 protein level in F11 cells (Western blotting); assay type: cell-based; details: CYP 100 nM alone
# Description: as §1, §2
# Control and treated F11 cells were collected and lysed in an ice-cold RIPA buffer containing protease and phosphatase inhibitor cocktail (Sigma-Aldrich, United States). The extracted proteins were quantified using BCA assay (Thermo, United States). NuPAGE lithium dodecyl sulfate sample buffer (Cat#NP007, Thermo, United States) and NuPAGE sample reducing agent (Cat#NP0004, Thermo, United States) were added to the samples and then put in the Thermoblock (Eppendorf, United Kingdom) at 75°C for 10 min. Protein lysates (30 μg) were separated on NuPAGE bis–tris glycine gradient precast gel (Cat#NP0321PK2, Invitrogen, United States) and electroblotted on a PVDF membrane (Cat#IPVH00010, Millipore, United States) using a semi-dry system (Thermo, United States). Non-specific binding sites were blocked by blocking solution (Cat#000105, Invitrogen, United States) for 15 min at RT. […] The relative densities of the immunoreactive bands were determined and normalized with respect to actin, using Fiji software. […]
# urinary bladder = assay type: in vivo; details: chronic CYP 75 mg kg^−1 i.p. three times every third day
# Procedure: CYP was administered to the animals by the intraperitoneal (i.p.) route (5 ml kg^−1) at the dosage of 75 mg kg^−1 for three times every third day to elicit chronic bladder irritation, as previously described ([Vizzard et al., 1996]).
# Animals pre-treated with the vehicle or a single high oral dose of DF2755A (20 mg kg^−1; 12 h before the first CYP administration) followed by repeated lower doses administration (7 mg kg^−1 twice daily for 7 days) during IC development were deeply anesthetized with isoflurane (4%) and then killed.
# After killing, rat abdomen was opened through a midline incision, and bladder and proximal urethra were exposed. A catheter was inserted into the bladder through the urethra and a loose ligature was placed around the neck of the urinary bladder. Bladder was inflated with saline via the catheter to slightly distend the bladder and ligature was tightened to maintain proper distension. Bladder was then excised cutting above the insertion point of ureters, and therefore the bladder neck was not included into the bladder sample. Bladders were opened using scissors and, after gross macroscopic evaluation and weighing, each bladder was cut into two equal pieces (named B1 and B2) and weighted again individually. One piece (B1) was placed in Eppendorf, then snap-frozen in liquid nitrogen, and stored at −80°C until quantification using ELISA assay. The second piece (B2) was placed in 10% formalin and stored at room temperature. Then the same samples were placed in 70% ethanol, then processed in paraffin blocks, and then trimmed according to the longitudinal plane to ensure the correct analysis of all the bladder sample. Sections were stained with hematoxylin and eosin (HE), and slides were then digitalized using a Pathscan® Touch scanner in the bright field mode with a ×20 objective. For the microscopic observations of bladder inflammation, the following parameters were analyzed: bladder edema in scores (n = 10/group), bladder hemorrhage in scores (n = 10/group), urothelial loss in scores (n = 10/group), and total inflammatory score, which was calculated by adding all the individual lesion scores (n = 10/group).
# CXCR1 = CXCR1 mRNA expression in F11 cells (RT PCR); assay type: cell-based; details: CYP 100 nM alone
# Description: as §1, §2
# TRPV4 = details: F11 cells, CYP 100 nM alone
# Procedure: F11 hybridoma cell line (ECACC 08062601), chosen as a model of dorsal root ganglion (DRG) neurons ([Platika et al., 1985]; [Brandolini et al., 2017]) was cultivated in DMEM (Corning, United States) supplemented with 10% heat-inactivated FBS (Sigma-Aldrich St. Louis, CO, United States), 1% penicillin/streptomycin, and 1% glutamine (Sigma-Aldrich, United States) at 37°C, in a humidified 95% air and 5% CO2 atmosphere. For these experiments, cells at 18th passage were used. Cells were differentiated with the rat nerve growth factor (rNGF; Sigma-Aldrich, United States). rNGF was dissolved in DMEM with 1% penicillin/streptomycin and 1% glutamine (FBS free) at the final concentration of 50 ng ml^−1. Medium was replaced every 3 days until complete differentiation, which occurred after 7 days.
# TRPV1 and TRPV4 mRNA expression and protein levels and CXCR1, CXCR2, and CXCL1 mRNA levels were evaluated in F11 cells exposed to CYP. […] The total RNA concentration was determined in RNAase-free water using Nanodrop, while the concentration was determined using the Qubit Fluorometer 3.0 (Thermo, United States). […] Relative expression levels were calculated for each sample after normalization against the reference gene, using the 2^−ΔΔCt method for comparing relative fold expression differences.
# TRPV1 [2] = assay: TRPV1 mRNA expression in F11 cells (RT PCR); assay type: cell-based; details: CYP 100 nM alone
# Description: as §1, §2
# F11 cells = assay: F11 cell viability (CellTiter AQueous One); assay type: cell-based; details: differentiated F11 cells, 24 h, 5 to 200 nM
# Procedure: as §1
# […] Cell viability was determined using the colorimetric method CellTiter AQueous One Solution Cell Proliferation Assay (Promega Corporation, United States), as previously reported ([Brandolini et al., 2017]). The quantity of formed formazan, as a function of viability, was measured at 492 nm using an ELISA plate reader, Infinite F200 (Tecan, Männedorf, Swiss). The results from five independent experiments were expressed as absorbance at 492 nm.
# [3] = tested on: acute CYP-induced IC model; parameters: method as in Dornelles et al., 2014; details: acute CYP-induced IC rat model with inflammatory bladder infiltrate; ref Dornelles et al., 2014; cited from earlier work
SMILES,CXCL1 mRNA expression versus control (CXCL1),CXCR2 mRNA expression versus control (CXCR2),TRPV1 protein level versus control (TRPV1 [1]),bladder hemorrhage (urinary bladder),inflammatory infiltrate and urothelial hyperplasia in urinary bladder (urinary bladder),"bladder edema, mean score (urinary bladder; score 0–4 (Table 1))","urothelial loss, mean score (urinary bladder; score 0–4 (Table 1))",CXCR1 mRNA expression versus control (CXCR1),TRPV4 mRNA expression versus control (TRPV4),TRPV1 mRNA expression versus control (TRPV1 [2]),neuronal cell viability (F11 cells),effect on nociceptive behavior [3]
"O=P1(N(CCCl)CCCl)NCCCO1 (stereo not drawn) [CYP, Cyclophosphamide, reference compound]",significantly increased,significantly increased,increased,no hemorrhage,no inflammatory infiltrate and no urothelial hyperplasia,0.4 ± 0.16,0.1 ± 0.10,significantly increased,did not change,significantly increased,did not modulate neuronal cell viability,–
O=C(Nc1ccc([N+](=O)[O-])cc1O)Nc1ccccc1Br [SB225002],–,–,–,–,–,–,–,–,–,–,–,antinociceptive effect
